One assay has as its system BV2 microglia cells. Description: In vitro phagocytosis of Aβ1-42 in BV2 cells, Western blot. Type of assay: cell-based, mouse. Conditions: Example 16; 5 μg/mL cytochalasin D. The procedure:
For total Aβ detection, 10-30 μg of cell extracts were separated on a precast 10-20% SDS polyacrylamide Tris-Tricine gel (Bio-Rad, Canada). Separated proteins were then transferred onto polyvinylidene fluoride (PVDF) membranes (PerkinElmer, Canada). Membrane were incubated in DPBS (Gibco, USA) at 90° C. for 10 min. Membrane were then incubated for 1 hour in blocking solution, which consist in TBS-T (50 mM Tris-HCl pH 8.0; 150 mM NaCl; 0.05% Tween 20) supplemented with 1% BSA (Sigma, Canada) and 5% non-fat dry milk, and probed for 16 hours at 4° C. with a mouse anti-amyloid beta protein monoclonal antibody clone 6E10 (Covance, USA) diluted to 1:1000 in TBS-T supplemented with 5% BSA and 0.02% sodium azide. Membranes were washed once for 15 min and three times for 5 min in TBS-T at room temperature. […] Films were digitalized using a HP Scanjet 4370 (HP) and signal intensity was measured using ImageJ (version 1.44p, NIH).
Aβ specific antibodies stimulate the uptake of soluble Aβ1-42 toxic peptides in an actin polymerization-dependent mechanism. […] Cells were incubated for the indicated period of time, resuspended by trypsinization, collected, solubilised in lysis buffer and further analyzed by immunoblotting. […]
For orientation: A western blot detects proteins with antibodies after separation by electrophoresis.

The next assay relates to AD-like neuropathologies. As to conditions: Schenk D. et al, 1999; cited from earlier work.
A further assay has as its system Aβ42. Nature of the assay: Anti Aβ42 specific immunogenicity in TASTPM mice. Type of assay: in vivo. Conditions: Example 24; 12 injections of 10 ug, intramuscular. The protocol: Whole blood is collected from mice and centrifuged on a vacutainer blood collection tube containing gel for serum separation. Serum samples are stored at −80° C. Streptavidin-coated plates (Greiner Bio-One, Germany) are first coated with beta-amyloid (1-42)-Lys(Biotin)-NH2 peptide (Anaspec, Inc.) at 0.5 μg/mL, using 50 mM sodium carbonate buffer, overnight at 4° C. Plates are then washed using a 4 times using PBS/0.05% Tween 20. Super Block (ScyTek laboratories) is added to the plates and incubated at 37° C. for at least one hour. Serum samples and standard (anti Aβ42 antibody (6E10 antibody, Covance, Inc.) are serially diluted in the plates and incubated at 37° C. for 2 hours. After a wash step, diluted peroxidase AffiniPure goat anti-mouse IgG, Fcγ fragment specific (Jackson ImmunoResearch Laboratories Inc.) is added for 1 hour at 37° C. A last wash is performed before adding TMB substrate reagent (BD OptEIA™, BD Biosciences) for 30 min at RT. Immediately, plates are stopped using 2N sulfuric acid, and then read at 450 nm using SpectraMax microplate reader (Molecular Devices, Inc.).
High and specific anti Aβ42 specific immunogenicity is promoted by a TLR2 containing adjuvant fused to the first six amino acid of Aβ in the amyloid deposition mouse model (TASTPM) following 12 injections of 10 ug of the Pam3Cys—SQ EPAAPAAEAT PAAEAP DAEFRH (SEQ ID NO:9) using the intramuscular route.

The subject of another assay is TASTPM mice. Nature of the assay: Survival rate of TASTPM mouse model. Type of assay: in vivo. Conditions: Example 26; weekly injections; followed for 112 days. The text has this: The usage of the TLR2 agonist, i.e. Pam3CysLip Aβ1-6 peptide, improves the survival rate of TASTPM mouse model. 23 out of 25 mice survived after weekly injections of Pam3CysLip Aβ1-6 peptide compared to PBS injected animals in which only 13 out 25 TASTPM mice survived (followed for 112 days).

A further assay has as its system working memory. Nature of the assay: T-water maze in TASTPM mice. Conditions: Example 25; 12 weekly i.m. injections; vs PBS. It is filed as in vivo. The procedure:
Mice were tested during the “light on” phase of the day. Behavioral experimenter was blinded to the genetic and treatment status of animals. To assess hippocampal-dependent spatial learning and memory, mice were trained in the T-water maze task. In this paradigm, we evaluate the mouse's ability to remember the spatial location of submerged platform. The T-maze apparatus (length of stem, 64 cm; length of arms, 30 cm; width, 12 cm; height of walls, 16 cm) was made of clear fiberglass and filled with water (23±1° C.) at a height of 12 cm. A platform (11×11 cm) was placed at the end of the target arm and was submerged 1 cm below the surface. The acquisition phase allows to evaluate animals for left-right spatial learning. During the first two trials, platforms were placed on each arms of the maze to test the spontaneous turning preference of the mouse. After these two trials, the least chosen arm was reinforced by the escape platform. […] The number of trials to reach the criterion (five of five correct choices made on consecutive trials) was measured as well as the latency to find the escape platform.
To determine whether a TLR2 agonist will improve the cognitive impairment in TASTPM mice, the Pam3CysLip adjuvant fused to the Aβ1-6 peptide was injected 12 times at weekly basis using the intramuscular route and the memory was assessed using the T-water maze test. […]

No end group written: not given here.

With `C=C1[C@@H](C)[C@H]2[C@H](Cc3ccccc3)NC(=O)[C@]23[C@H](OC(C)=O)/C=C/[C@@](C)(O)C(=O)[C@@H](C)C/C=C/[C@H]3[C@@H]1O` [cytochalasin D], the “effect on 2E7-increased cellular uptake of Aβ1-42” value with BV2 microglia cells is “inhibited”.

Consider “synthetic human Aβ1-42: synthetic human Aβ1-42 used to immunize PDAPP mice”, for which the AD-like neuropathologies result in the assay on AD-like neuropathologies is “reduce the extent and progression of AD-like neuropathologies”.

As to “Pam3Cys—SQ EPAAPAAEAT PAAEAPDAEFRH (Pam3Cys-SQEPAAPAAEATPAAEAPDAEFRH) [Pam3CysLip Aβ1-6]”, the Aβ42 specific immunogenicity entry in the assay on Aβ42 is “High Aβ42 specific Immunogenicity”. Also, the mice survived in the assay with TASTPM mice is 23 out of 25. For the same compound, in the assay on working memory, the “right-left discrimination tests, T-water maze” value is “trend of improvement”.
